Where “and” joins values, the source holds several entries; their conditions need not be identical. Equal entries are not always repeated. Entries after “also recorded” stand apart in the source; their conditions may differ.
Tests used:
[1] = tested on: p-Stat3; experiment: Cancer stemness biomarker immunofluorescence in cancer xenograft tumors: p-Stat3; assay type: in vivo, mouse xenograft
Protocol: (§1) The effects of 2-acetylnaphtho[2,3-b]furan-4,9-dione, a compound of formula (I), on cancer stem cell markers was examined in cancer xenograft models with and without irinotecan. Human cancer cells were subcutaneously implanted into the right flank of 5-7 weeks old female athymic nude mice. When tumor size reached 200 mm^3, animals were treated with 2-acetylnaphtho[2,3-b]furan-4,9-dione, irinotecan, or a combination of 2-acetylnaphtho[2,3-b]furan-4,9-dione and irinotecan. Tumors were harvested after first dosing.
(§2) The harvested tissues were fixed in 3.7% neutral buffered formaldehyde at 4° C. for overnight. The paraffin was embedded, cut to about 5 microns, and affixed onto positively-charged slides. After being baked and de-paraffinized, the slides with tumor or control tissues were incubated in 10 mM Sodium Citrate (pH 6.0) for 10 minutes. After antigen retrieval, slides were probed with primary antibodies P-STAT3 (rabbit, Cell Signaling, 1:100), 13-Catenine (mouse, Santa Cruz, 1:400) at 4° C. overnight, and then Alexa Fluor fluorescent dyes-conjugated secondary antibodies (1:500, Invitrogen). After mounting, the slides with ProLong mounting medium with DAPI (Invitrogen) were examined under a Zeiss fluorescence microscope with 20× objective, and analyzed with Zen software.

[2] = tested on: β-catenin; experiment: Cancer stemness biomarker immunofluorescence in cancer xenograft tumors: β-catenin; assay type: in vivo
Protocol: as §1, §2

[3] = tested on: cancer stem cells; experiment: Effect on cancer stem cells with and without 5-fluorouracil; assay type: cell-based; conditions: FIG. 5
Excerpt: The effects of 2-acetylnaphtho[2,3-b]furan-4,9-dione was examined in cancer stem cells with and without 5-fluorouracil by using methods similar to those disclosed in U.S. pre-grant Publication No. 2012/0252763, Example 3.

[4] = tested on: advanced gastrointestinal cancer, including CRC and gastric cancer; experiment: Phase Ib open-label multi-center study, anti-tumor activity (RECIST 1.1); assay type: in vivo, human; parameters: key to Best Response (RECIST 1.1): partial response (PR); stable disease (SD)
Protocol: (§3) The effects of 2-acetylnaphtho[2,3-b]furan-4,9-dione in combination with FOLFIRI in patients with advanced gastrointestinal cancer, including CRC and gastric cancer, were studied in phase lb open-label, multi-center studies. In one phase lb open label, multi-center clinical study, the safety, tolerability, and preliminary anti-tumor activity of 2-acetylnaphtho[2,3-b]furan-4,9-dione in combination with FOLFIRI, with and without bevacizumab, were assessed in adult patients with advanced gastrointestinal cancer, including CRC and gastric cancer. In addition, the pharmacokinetic profile and the pharmacodynamics (biomarkers) of 2-acetylnaphtho[2,3-b]furan-4,9-dione in combination with FOLFIRI, with and without bevacizumab, were studied, and the recommended phase II dose (RP2D) of 2-acetylnaphtho[2,3-b]furan-4,9-dione and FOLFIRI, with or without bevacizumab, were evaluated.
In total, as of April 2015, 18 patients aged 40-72 were enrolled in the open label, multi-center, phase lb study (see Table 2). These patients were pretreated with an average of >3 prior lines of therapy. Of this group, 10 patients (56%) previously progressed on FOLFIRI.
Of the 17 patients evaluable for response, 8 patients received 2-acetylnaphtho[2,3-b]furan-4,9-dione in combination with FOLFIRI and 9 patients received 2-acetylnaphtho[2,3-b]furan-4,9-dione in combination with FOLFIRI and bevacizumab (see FIG. 7).
(§4) Patients received continuous oral administration of 2-acetylnaphtho[2,3-b]furan-4,9-dione twice daily in 28 day cycles. A FOLFIRI regimen was administered (with or without bevacizumab depending on patient) every 14 days. Specifically, 2-acetylnaphtho[2,3-b]furan-4,9-dione was administered at a dose of 240 mg BID in combination with FOLFIRI (5-FU 400 mg/m^2 bolus with 2400 mg/m^2, irinotecan 180 mg/m^2, and leucovorin 400 mg/m^2 infusion) with or without bevacizumab 5 mg/kg, administered bi-weekly until progression of disease, unacceptable toxicity, or other discontinuation criterion was met.
(§5) Pharmacokinetics and pharmacodynamics were evaluated and objective tumor response was assessed every 8 weeks using Response Evaluation Criteria In Solid Tumors (RECIST 1.1).

[5] = Phase Ib open-label multi-center study, safety and tolerability (adverse events); assay type: in vivo, human; conditions: 240 mg BID with FOLFIRI, with and without bevacizumab
Protocol: as §3, §4

[6] = Phase Ib open-label multi-center study, pharmacokinetics; assay type: in vivo, human; conditions: 240 mg BID with FOLFIRI, with and without bevacizumab
Protocol: as §3, §5

[7] = added to irinotecan, cancer xenograft tumor model, FIG. 6
[8] = alone, human colon cancer xenograft tumor (SW480) in nude mice, FIG. 4
[9] = 240 mg BID with FOLFIRI, with and without bevacizumab, 17 evaluable patients
[10] = individual patients, 240 mg BID with chemotherapy backbone FOLFIRI
[11] = individual patients, 240 mg BID with chemotherapy backbone FOLFIRI/Bev
[12] = N = 18, possibly/probably/definitely related
[13] = alone, cancer xenograft tumor model, FIG. 6

## CC(=O)c1cc2c(o1)C(=O)c1ccccc1C2=O [2-acetylnaphtho[2,3-b]furan-4,9-dione]
[1]; [7]
  irinotecan-enhanced staining for stem cell marker p-Stat3: attenuated
[1]; [8]
  expression of p-Stat3 stem cell marker: dramatically reduced
[2]; [7]
  irinotecan-enhanced staining for stem cell marker β-catenin: attenuated
[2]; [8]
  expression of β-catenin stem cell marker: dramatically reduced
[3]; added to 5-fluorouracil
  5-fluorouracil-induced increase in the number of cancer stem cells: attenuated
[3]; combination with 5-fluorouracil
  effect of the combination on cancer stem cell growth: greater than additive effect
[4]; 240 mg BID with FOLFIRI, with and without bevacizumab
  regression in the PR patients (RECIST 1.1): 44% and 33%
[4]; 240 mg BID with FOLFIRI, with and without bevacizumab, 7 of 17 patients
  patients with prolonged SD of ≥6 month: 41%
[4]; 240 mg BID with FOLFIRI, with and without bevacizumab, 10 of 17
  evaluable patients with prolonged SD (>6 months): 59%
[4]; 240 mg BID with FOLFIRI, with and without bevacizumab, 15 of 17, FIG. 7
  evaluable patients with reduced target lesions: 88%
[4]; [9]
  number of patients with PR (RECIST 1.1): 2
  number of patients with SD: 14
[4]; 240 mg BID with FOLFIRI, with and without bevacizumab, advanced CRC who had failed prior standard chemotherapy
  patients in whom anti-cancer activity was observed: 94%
[4]; 240 mg BID with FOLFIRI, with and without bevacizumab, evaluable patients
  median progression-free survival (PFS): 5.72 months
[4]; clinical trials, at least in CRC patients
  overall survival of patients with higher expression levels of Stat3 (pStat3) before treatment: prolonged overall survival
[4]; combination with FOLFIRI for 8 weeks, failed prior epirubicin, oxaliplatin and Xeloda, FIG. 8
  response of a patient with gastric adenocarcinoma with a metastatic lesion in the liver: complete response
[4]; in combination with FOLFIRI and bevacizumab
  median survival of pStat3-positive patients compared to pStat3-negative patients: longer median survival
[4]; [10]
  Best Response (RECIST 1.1): SD (4×) and PR (3×)
  Comment on course of disease: prolonged stable disease; also recorded: unequivocal progression; also recorded: prolonged stable disease,; also recorded: prolonged SD/PR,
  Weeks on Study: 25 weeks and 17 weeks (2×) and 16 weeks and 6 weeks and 3 weeks and 34+ weeks and 32+ weeks and 36 weeks
  tumor growth: 8% tumor growth, and 3% tumor growth
  tumor regression: 19% tumor regression, and 44% tumor regression and 23% tumor regression and 17 tumor regression, % and 40% tumor regression, and 83% tumor regression,
[4]; [11]
  Best Response (RECIST 1.1): SD
  Comment on course of disease: prolonged stable disease,; also recorded: prolonged stable disease
  Weeks on Study: 85+ weeks and 29 weeks and 24 weeks and 18 weeks and 15 weeks and 14 weeks and 25 weeks (2×) and 42 weeks
  tumor regression: 25% tumor regression, and 14% tumor regression, and 18% tumor regression, and 4% tumor regression and 10% tumor regression and 21% tumor regression and 1% tumor regression; and 4% tumor regression; and 18% tumor regression;
[4]; with bi-weekly FOLFIRI with or without bevacizumab
  lesion formations in patients previously exposed to FOLFIRI but experiencing progression: reduced lesion formations in almost all of the patients
[5]
  Dehydration Grade 3 related to protocol therapy, number of patients: 1
  dose limiting toxicity or new adverse events: No dose limiting toxicity or new adverse events were seen
  safety of the combination: safely combined
[5]; [12]
  Abdominal Pain Grade 1, number of subjects: 7
  Abdominal Pain Grade 1, percent of total subjects: 38.9%
  Abdominal Pain Grade 2, number of subjects: 4
  Abdominal Pain Grade 2, percent of total subjects: 22.2%
  Abdominal Pain Grade 3, number of subjects: 0
  Abdominal Pain Grade 3, percent of total subjects: 0.0%
  Alopeda Grade 1, number of subjects: 4
  Alopeda Grade 1, percent of total subjects: 22.2%
  Alopeda Grade 2, number of subjects: 0
  Alopeda Grade 2, percent of total subjects: 0.0%
  Alopeda Grade 3, number of subjects: 0
  Alopeda Grade 3, percent of total subjects: 0.0%
  Anemia Grade 1, number of subjects: 2
  Anemia Grade 1, percent of total subjects: 11.1%
  Anemia Grade 2, number of subjects: 2
  Anemia Grade 2, percent of total subjects: 11.1%
  Anemia Grade 3, number of subjects: 0
  Anemia Grade 3, percent of total subjects: 0.0%
  Anorexia Grade 1, number of subjects: 12
  Anorexia Grade 1, percent of total subjects: 66.7%
  Anorexia Grade 2, number of subjects: 3
  Anorexia Grade 2, percent of total subjects: 16.7%
  Anorexia Grade 3, number of subjects: 0
  Anorexia Grade 3, percent of total subjects: 0.0%
  Diarrhea Grade 1, number of subjects: 18
  Diarrhea Grade 1, percent of total subjects: 100.0%
  Diarrhea Grade 2, number of subjects: 9
  Diarrhea Grade 2, percent of total subjects: 50.0%
  Diarrhea Grade 3, number of subjects: 3
  Diarrhea Grade 3, percent of total subjects: 16.7%
  Dry Mouth Grade 1, number of subjects: 2
  Dry Mouth Grade 1, percent of total subjects: 11.1%
  Dry Mouth Grade 2, number of subjects: 1
  Dry Mouth Grade 2, percent of total subjects: 5.6%
  Dry Mouth Grade 3, number of subjects: 0
  Dry Mouth Grade 3, percent of total subjects: 0.0%
  Dysgeusia Grade 1, number of subjects: 5
  Dysgeusia Grade 1, percent of total subjects: 27.8%
  Dysgeusia Grade 2, number of subjects: 0
  Dysgeusia Grade 2, percent of total subjects: 0.0%
  Dysgeusia Grade 3, number of subjects: 0
  Dysgeusia Grade 3, percent of total subjects: 0.0%
  Fatigue Grade 1, number of subjects: 12
  Fatigue Grade 1, percent of total subjects: 66.7%
  Fatigue Grade 2, number of subjects: 10
  Fatigue Grade 2, percent of total subjects: 55.6%
  Fatigue Grade 3, number of subjects: 3
  Fatigue Grade 3, percent of total subjects: 16.7%
  Flatulence Grade 1, number of subjects: 2
  Flatulence Grade 1, percent of total subjects: 11.1%
  Flatulence Grade 2, number of subjects: 1
  Flatulence Grade 2, percent of total subjects: 5.6%
  Flatulence Grade 3, number of subjects: 0
  Flatulence Grade 3, percent of total subjects: 0.0%
  Nausea Grade 1, number of subjects: 14
  Nausea Grade 1, percent of total subjects: 77.8%
  Nausea Grade 2, number of subjects: 6
  Nausea Grade 2, percent of total subjects: 33.3%
  Nausea Grade 3, number of subjects: 0
  Nausea Grade 3, percent of total subjects: 0.0%
  Neutropenia Grade 1, number of subjects: 3
  Neutropenia Grade 1, percent of total subjects: 16.7%
  Neutropenia Grade 2, number of subjects: 2
  Neutropenia Grade 2, percent of total subjects: 11.1%
  Neutropenia Grade 3, number of subjects: 0
  Neutropenia Grade 3, percent of total subjects: 0.0%
  Platelet Count Grade 1, number of subjects: 2
  Platelet Count Grade 1, percent of total subjects: 11.1%
  Platelet Count Grade 2, number of subjects: 0
  Platelet Count Grade 2, percent of total subjects: 0.0%
  Platelet Count Grade 3, number of subjects: 0
  Platelet Count Grade 3, percent of total subjects: 0.0%
  Urine Discolorization Grade 1, number of subjects: 4
  Urine Discolorization Grade 1, percent of total subjects: 22.2%
  Urine Discolorization Grade 2, number of subjects: 0
  Urine Discolorization Grade 2, percent of total subjects: 0.0%
  Urine Discolorization Grade 3, number of subjects: 0
  Urine Discolorization Grade 3, percent of total subjects: 0.0%
  Vomiting Grade 1, number of subjects: 11
  Vomiting Grade 1, percent of total subjects: 61.1%
  Vomiting Grade 2, number of subjects: 3
  Vomiting Grade 2, percent of total subjects: 16.7%
  Vomiting Grade 3, number of subjects: 0
  Vomiting Grade 3, percent of total subjects: 0.0%
  Weight Loss Grade 1, number of subjects: 2
  Weight Loss Grade 1, percent of total subjects: 11.1%
  Weight Loss Grade 2, number of subjects: 0
  Weight Loss Grade 2, percent of total subjects: 0.0%
  Weight Loss Grade 3, number of subjects: 0
  Weight Loss Grade 3, percent of total subjects: 0.0%
[6]
  pharmacokinetic interactions: No significant pharmacokinetic interactions were observed

## CCc1c2c(nc3ccc(OC(=O)N4CCC(N5CCCCC5)CC4)cc13)-c1cc3c(c(=O)n1C2)COC(=O)[C@]3(O)CC [irinotecan, reference compound]
[1]; [13]
  staining for stem cell marker p-Stat3: enhanced staining
[2]; [13]
  staining for stem cell marker β-catenin: enhanced staining
